Results taken from ChEMBL document CHEMBL1136092, “Enantiotracin” (2003).
In brackets after ≈: the same amount, converted by molar mass.

Tests used:
Type in all cases: functional
[1] = system: Micrococcus luteus; test: In vitro inhibitory concentration required against Micrococcus luteus (Micrococcus luteus)
[2] = system: Staphylococcus epidermidis; test: In vitro inhibitory concentration required against Staphylococcus epidermidis (Staphylococcus epidermidis)
[3] = system: Staphylococcus aureus; test: In vitro inhibitory concentration required against Staphylococcus aureus (Staphylococcus aureus)

SMILES | MIC [1] [µg/mL] | MIC ([2]; Staphylococcus epidermidis, read-out: MIC) [µg/mL] | MIC ([3]; Staphylococcus aureus, read-out: MIC) [µg/mL] | MIC [2] [µg/mL] | MIC [3] [µg/mL]
CC[C@H](C)[C@@H](N)C1=N[C@@H](C(=O)N[C@H](CC(C)C)C(=O)N[C@@H](CCC(=O)O)C(=O)N[C@@H](C(=O)N[C@@H]2CCCCNC(=O)[C@@H](CC(N)=O)NC(=O)[C@H](CC(=O)O)NC(=O)[C@@H](Cc3c[nH]cn3)NC(=O)[C@H](Cc3ccccc3)NC(=O)[C@@H]([C@@H](C)CC)NC(=O)[C@H](CCCN)NC2=O)[C@@H](C)CC)CS1 (stereo in doubt; form 1) [BACITRACIN A] | < 0.013 | 32 (≈ 22.5 µM) | 4 (≈ 2.81 µM) | – | –
CC[C@H](C)[C@@H](N)C1=N[C@@H](C(=O)N[C@H](CC(C)C)C(=O)N[C@@H](CCC(=O)O)C(=O)N[C@@H](C(=O)N[C@@H]2CCCCNC(=O)[C@@H](CC(N)=O)NC(=O)[C@H](CC(=O)O)NC(=O)[C@@H](Cc3c[nH]cn3)NC(=O)[C@H](Cc3ccccc3)NC(=O)[C@@H]([C@@H](C)CC)NC(=O)[C@H](CCCN)NC2=O)[C@@H](C)CC)CS1 (stereo in doubt; form 2) [BACITRACIN A] | – | – | – | 32 (≈ 22.5 µM) | 4 (≈ 2.81 µM)
